Experimental findings from patent publication US11760722B2 (priority 2022, dated 2023) are described below.

Structures are written as SMILES. Where “and” joins values, the source holds several entries; their conditions need not be identical. Equal values may be shown once.

The first assay relates to SARS-CoV-2 replicon. The assay is described as follows: microbe, parasite or virus in culture. Format: cell-based. The settings on record: Severe acute respiratory syndrome coronavirus 2, Huh-7, 24 h, read-out: Replicon EC50.
In the case of `CC(C)(C)NC(=S)N[C@H](C(=O)N1C[C@H]2[C@@H]([C@H]1C(=O)N[C@H](C#N)C[C@@H]1CCNC1=O)C2(C)C)C(C)(C)C` [Compound 56], the EC50 was determined as 370 nM.

The same assay, now with this note: Severe acute respiratory syndrome coronavirus 2, Huh-7, 24 h; read-out: Replicon EC50.
As for `CC(C)(C)[C@H](NC(=S)Nc1cccc(C(F)(F)F)c1)C(=O)N1C[C@H]2[C@@H]([C@H]1C(=O)N[C@H](C#N)C[C@@H]1CCNC1=O)C2(C)C` [Compound 52], the EC50 was 410 nM.

In the case of `CN1CCCC1C(=O)N[C@H](C(=O)N1C[C@H]2[C@@H]([C@H]1C(=O)N[C@H](C#N)C[C@@H]1CCNC1=O)C2(C)C)C(C)(C)C` (some centres unmarked) [Compound 58], the EC50 came out at 4720 nM.

As for `CNC(C)(C)C(=O)N[C@H](C(=O)N1C[C@H]2[C@@H]([C@H]1C(=O)N[C@H](C#N)C[C@@H]1CCNC1=O)C2(C)C)C(C)(C)C` [Compound 59], the EC50 was found to be 16200 nM.

For the compound `CC(C)(C)OC(=O)N(C(=O)N1C[C@H]2[C@@H]([C@H]1C(=O)N[C@H](C#N)C[C@@H]1CCNC1=O)C2(C)C)[C@@H]1C[C@H]1C(F)F` [Compound 60], the EC50 was above 30000 nM.

On to `C=CC(=O)N[C@H](C(=O)N1C[C@H]2[C@@H]([C@H]1C(=O)N[C@H](C#N)C[C@@H]1CCNC1=O)C2(C)C)C(C)(C)C` [Compound 61], for which the EC50 came to 2740 nM.

Consider `CC(C)(C)[C@H](NS(=O)(=O)N1CC2CC1C2)C(=O)N1C[C@H]2[C@@H]([C@H]1C(=O)N[C@H](C#N)C[C@@H]1CCNC1=O)C2(C)C` [Compound 62], for which the EC50 worked out at 1490 nM.

As for `CC(C)(C)[C@H](NC(=O)C1CC2(CCC2)C1)C(=O)N1C[C@H]2[C@@H]([C@H]1C(=O)N[C@H](C#N)C[C@@H]1CCNC1=O)C2(C)C` [Compound 63], the EC50 stood at 730 nM.

As to `CC(C)(C)[C@H](NC(=O)CS(C)(=O)=O)C(=O)N1C[C@H]2[C@@H]([C@H]1C(=O)N[C@H](C#N)C[C@@H]1CCNC1=O)C2(C)C` [Compound 64], the concentration giving a half-maximal response (EC50) stood at 990 nM.

On to `CC1(C(=O)N[C@H](C(=O)N2C[C@H]3[C@@H]([C@H]2C(=O)N[C@H](C#N)C[C@@H]2CCNC2=O)C3(C)C)C(C)(C)C)CCCN1` (some centres unmarked) [Compound 65], for which the EC50 was 18700 nM.

Regarding `COC1(CC(=O)N[C@H](C(=O)N2C[C@H]3[C@@H]([C@H]2C(=O)N[C@H](C#N)C[C@@H]2CCNC2=O)C3(C)C)C(C)(C)C)CCC1` [Compound 67], the EC50 was above 30000 nM.

Turning to `CC(C)(C)[C@H](NC(=O)CC12CC(C(F)(F)F)(C1)C2)C(=O)N1C[C@H]2[C@@H]([C@H]1C(=O)N[C@H](C#N)C[C@@H]1CCNC1=O)C2(C)C` [Compound 68], the EC50 was found to be 1920 nM.

As for `COC12CCC(C(=O)N[C@H](C(=O)N3C[C@H]4[C@@H]([C@H]3C(=O)N[C@H](C#N)C[C@@H]3CCNC3=O)C4(C)C)C(C)(C)C)(CC1)CC2` [Compound 69], the EC50 came out at 10300 nM.

In the case of `Cc1csc(S(=O)(=O)N[C@H](C(=O)N2C[C@H]3[C@@H]([C@H]2C(=O)N[C@H](C#N)C[C@@H]2CCNC2=O)C3(C)C)C(C)(C)C)c1` [Compound 112], the EC50 was 62 nM.

On to `C#CCC(=O)N[C@H](C(=O)N1C[C@H]2[C@@H]([C@H]1C(=O)N[C@H](C#N)C[C@@H]1CCNC1=O)C2(C)C)C(C)(C)C` [Compound 136], for which the EC50 was found to be 300 nM.

For `CC(C)(C)[C@H](NS(=O)(=O)c1ccsc1)C(=O)N1C[C@H]2[C@@H]([C@H]1C(=O)N[C@H](C#N)C[C@@H]1CCNC1=O)C2(C)C` [Compound 139], the EC50 turned out to be 140 nM.

Still in this assay, the particulars now being: read-out: Replicon EC50.
On to `CC(C)(C)[C@H](NS(=O)(=O)c1ccc(C(F)(F)F)cc1)C(=O)N1C[C@H]2[C@@H]([C@H]1C(=O)N[C@H](C#N)C[C@@H]1CCNC1=O)C2(C)C` [Compound 44], for which the half-maximal effective concentration (EC50) was above 30000 nM.

As to `Cc1csc(S(=O)(=O)N[C@H](C(=O)N2C[C@H]3[C@@H]([C@H]2C(=O)N[C@H](C#N)C[C@@H]2CCNC2=O)C3(C)C)C(C)(C)C)c1` [Compound 112], the EC50 was 86 nM.

As to `C#CCC(=O)N[C@H](C(=O)N1C[C@H]2[C@@H]([C@H]1C(=O)N[C@H](C#N)C[C@@H]1CCNC1=O)C2(C)C)C(C)(C)C` [Compound 136], the EC50 was 320 nM and 420 nM and 540 nM.

With `CC(C)(C)[C@H](NS(=O)(=O)c1ccsc1)C(=O)N1C[C@H]2[C@@H]([C@H]1C(=O)N[C@H](C#N)C[C@@H]1CCNC1=O)C2(C)C` [Compound 139], the EC50 was 160 nM.
